Article PMC8843100, “Development of newly synthesised quinazolinone-based CDK2 inhibitors with potent efficacy against melanoma” (Journal of Enzyme Inhibition and Medicinal Chemistry, 2022)

Assays:
Experiment in all cases: NCI-60 single dose screen, sulforhodamine B
Assay type in all cases: cell-based, human
NCI/ADR-RES = details: Ovarian cancer NCI/ADR-RES; single dose 10^−5 M
Procedure, shortened: (§1)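 Each compound, in DMSO, was applied once at 10 µM to cells pre-grown for a day; after a further 2-day incubation the cells were fixed and stained with sulforhodamine B.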

MDA-MB-231/ATCC = details: Breast cancer MDA-MB-231/ATCC; single dose 10^−5 M
Procedure, shortened: as §1

DU-145 = details: Prostate cancer DU-145; single dose 10^−5 M
Procedure, shortened: as §1

LOX IMVI = details: Melanoma LOX IMVI; single dose 10^−5 M
Procedure, shortened: as §1

CCRF-CEM = details: Leukaemia CCRF-CEM; single dose 10^−5 M
Procedure, shortened: as §1

SK-MEL-2 = details: Melanoma SK-MEL-2; single dose 10^−5 M
Procedure, shortened: as §1

KM12 = details: Colon cancer KM12; single dose 10^−5 M
Procedure, shortened: as §1

MALME-3M = details: Melanoma MALME-3M; single dose 10^−5 M
Procedure, shortened: as §1

HT29 = details: Colon cancer HT29; single dose 10^−5 M
Procedure, shortened: as §1

HOP-62 = details: Non-small cell lung cancer HOP-62; single dose 10^−5 M
Procedure, shortened: as §1

786-0 = details: Renal cancer 786-0; single dose 10^−5 M
Procedure, shortened: as §1

HCT-116 = details: Colon cancer HCT-116; single dose 10^−5 M
Procedure, shortened: as §1

SK-MEL-28 = details: Melanoma SK-MEL-28; single dose 10^−5 M
Procedure, shortened: as §1

OVCAR-8 = details: Ovarian cancer OVCAR-8; single dose 10^−5 M
Procedure, shortened: as §1

NCI-H23 = details: Non-small cell lung cancer NCI-H23; single dose 10^−5 M
Procedure, shortened: as §1

RXF 393 = details: Renal cancer RXF 393; single dose 10^−5 M
Procedure, shortened: as §1

HCC-2998 = details: Colon cancer HCC-2998; single dose 10^−5 M
Procedure, shortened: as §1

UACC-257 = details: Melanoma UACC-257; single dose 10^−5 M
Procedure, shortened: as §1

T-47D = details: Breast cancer T-47D; single dose 10^−5 M
Procedure, shortened: as §1

CAKI-1 = details: Renal cancer CAKI-1; single dose 10^−5 M
Procedure, shortened: as §1

HS 578T = details: Breast cancer HS 578T; single dose 10^−5 M
Procedure, shortened: as §1

SK-MEL-5 = details: Melanoma SK-MEL-5; single dose 10^−5 M
Procedure, shortened: as §1

NCI-H460 = details: Non-small cell lung cancer NCI-H460; single dose 10^−5 M
Procedure, shortened: as §1

SN12C = details: Renal cancer SN12C; single dose 10^−5 M
Procedure, shortened: as §1

| Compound | GI% at 10^−5 M (NCI/ADR-RES) | GI% at 10^−5 M (MDA-MB-231/ATCC) | GI% at 10^−5 M (DU-145) | GI% at 10^−5 M (LOX IMVI) | GI% at 10^−5 M (CCRF-CEM) | GI% at 10^−5 M (SK-MEL-2) | GI% at 10^−5 M (KM12) | GI% at 10^−5 M (MALME-3M) | GI% at 10^−5 M (HT29) | GI% at 10^−5 M (HOP-62) [%] | GI% at 10^−5 M (786-0) | GI% at 10^−5 M (HCT-116) | GI% at 10^−5 M (SK-MEL-28) | GI% at 10^−5 M (OVCAR-8) | GI% at 10^−5 M (NCI-H23) | GI% at 10^−5 M (RXF 393) | GI% at 10^−5 M (HCC-2998) | GI% at 10^−5 M (UACC-257) | GI% at 10^−5 M (T-47D) | GI% at 10^−5 M (CAKI-1) | further results |
| --- | --- | --- | --- | --- | --- | --- | --- | --- | --- | --- | --- | --- | --- | --- | --- | --- | --- | --- | --- | --- | --- |
| O=C(CNn1c(COc2ccccc2)nc2ccccc2c1=O)Nc1ccccc1 [Compound 4a, 2-((4-oxo-2-(phenoxymethyl)quinazolin-3(4H)-yl)amino)-N-phenylacetamide] | – (– means GI < 10%) | 18.56% | – (– means GI < 10%) | – (– means GI < 10%) | – (– means GI < 10%) | – (– means GI < 10%) | – (– means GI < 10%) | – (– means GI < 10%) | – (– means GI < 10%) | 13.59 | – (– means GI < 10%) | – (– means GI < 10%) | – (– means GI < 10%) | – (– means GI < 10%) | 16.55% | – (– means GI < 10%) | – (– means GI < 10%) | – (– means GI < 10%) | – (– means GI < 10%) | 12.78% | GI% at 10^−5 M (HS 578T): 11.86%; GI% at 10^−5 M (SK-MEL-5): – (– means GI < 10%); GI% at 10^−5 M (NCI-H460): – (– means GI < 10%); GI% at 10^−5 M (SN12C): 13.08% |
| COc1ccc(NC(=O)CNn2c(COc3ccccc3)nc3ccccc3c2=O)cc1 [Compound 4b, N-(4-methoxyphenyl)-2-((4-oxo-2-(phenoxymethyl)quinazolin-3(4H)-yl)amino)acetamide] | – (– means GI < 10%) | 11.38% | – (– means GI < 10%) | – (– means GI < 10%) | – (– means GI < 10%) | – (– means GI < 10%) | – (– means GI < 10%) | – (– means GI < 10%) | – (– means GI < 10%) | 12.71 | – (– means GI < 10%) | – (– means GI < 10%) | – (– means GI < 10%) | – (– means GI < 10%) | – (– means GI < 10%) | – (– means GI < 10%) | – (– means GI < 10%) | – (– means GI < 10%) | – (– means GI < 10%) | 21.63% | GI% at 10^−5 M (HS 578T): – (– means GI < 10%); GI% at 10^−5 M (SK-MEL-5): – (– means GI < 10%); GI% at 10^−5 M (NCI-H460): – (– means GI < 10%); GI% at 10^−5 M (SN12C): 12.37% |
| O=C(CNn1c(COc2ccccc2)nc2ccccc2c1=O)Nc1ccc(Cl)cc1 [Compound 4c, N-(4-chlorophenyl)-2-((4-oxo-2-(phenoxymethyl)quinazolin-3(4H)-yl)amino)acetamide] | 10.99% | – (– means GI < 10%) | – (– means GI < 10%) | – (– means GI < 10%) | – (– means GI < 10%) | – (– means GI < 10%) | – (– means GI < 10%) | 12.02% | – (– means GI < 10%) | 12.12 | – (– means GI < 10%) | – (– means GI < 10%) | – (– means GI < 10%) | – (– means GI < 10%) | – (– means GI < 10%) | – (– means GI < 10%) | – (– means GI < 10%) | – (– means GI < 10%) | 29.33% | 23.58% | GI% at 10^−5 M (HS 578T): 19.01%; GI% at 10^−5 M (SK-MEL-5): – (– means GI < 10%); GI% at 10^−5 M (NCI-H460): – (– means GI < 10%); GI% at 10^−5 M (SN12C): 19.15% |
| O=c1c2ccccc2nc(COc2ccccc2)n1NS(=O)(=O)c1ccccc1 [Compound 5a, N-(4-oxo-2-(phenoxymethyl)quinazolin-3(4H)-yl)benzenesulfonamide] | – (– means GI < 10%) | 13.77% | – (– means GI < 10%) | – (– means GI < 10%) | – (– means GI < 10%) | – (– means GI < 10%) | – (– means GI < 10%) | – (– means GI < 10%) | – (– means GI < 10%) | 16.59 | – (– means GI < 10%) | – (– means GI < 10%) | – (– means GI < 10%) | – (– means GI < 10%) | 11.73% | – (– means GI < 10%) | – (– means GI < 10%) | – (– means GI < 10%) | – (– means GI < 10%) | 15.07% | GI% at 10^−5 M (HS 578T): – (– means GI < 10%); GI% at 10^−5 M (SK-MEL-5): – (– means GI < 10%); GI% at 10^−5 M (NCI-H460): – (– means GI < 10%); GI% at 10^−5 M (SN12C): 11.46% |
| Cc1ccc(S(=O)(=O)Nn2c(COc3ccccc3)nc3ccccc3c2=O)cc1 [Compound 5b, 4-methyl-N-(4-oxo-2-(phenoxymethyl)quinazolin-3(4H)-yl)benzenesulfonamide] | – (– means GI < 10%) | 10.94% | 15.73% | – (– means GI < 10%) | – (– means GI < 10%) | – (– means GI < 10%) | – (– means GI < 10%) | – (– means GI < 10%) | – (– means GI < 10%) | 11.16 | – (– means GI < 10%) | – (– means GI < 10%) | – (– means GI < 10%) | – (– means GI < 10%) | 11.47% | 10.27% | – (– means GI < 10%) | – (– means GI < 10%) | – (– means GI < 10%) | – (– means GI < 10%) | GI% at 10^−5 M (HS 578T): – (– means GI < 10%); GI% at 10^−5 M (SK-MEL-5): – (– means GI < 10%); GI% at 10^−5 M (NCI-H460): – (– means GI < 10%); GI% at 10^−5 M (SN12C): – (– means GI < 10%) |
| O=c1c2ccccc2nc(COc2ccccc2)n1NS(=O)(=O)c1ccc(Cl)cc1 [Compound 5c, 4-chloro-N-(4-oxo-2-(phenoxymethyl)quinazolin-3(4H)-yl)benzenesulfonamide] | 26.99% | 32.6% | – (– means GI < 10%) | 16.40% | – (– means GI < 10%) | 25.29% | 44.77% | 17.90% | 20.01% | 25.00 | – (– means GI < 10%) | 16.40% | 12.91% | – (– means GI < 10%) | 17.19% | – (– means GI < 10%) | 22.36% | – (– means GI < 10%) | 25.18% | 26.93% | GI% at 10^−5 M (HS 578T): 24.96%; GI% at 10^−5 M (SK-MEL-5): – (– means GI < 10%); GI% at 10^−5 M (NCI-H460): – (– means GI < 10%); GI% at 10^−5 M (SN12C): 23.41% |
